“And” between values parts separate entries of the source, which are not always exact repeats. Equal entries are not always repeated.
How the values were obtained:
Assay type in all cases: in vivo
[1] = tested on: Western Potato Leaf Hopper (Empoasca abrupta); assay: Western Potato Leaf Hopper test; settings: 2 days
Text: Western Potato Leaf Hopper (Empoasca abrupta DeLong)
A lima bean plant with the primary leaf expanded to 7.6 to 10 cm is dipped into a 100 ppm solution and set in a hood to dry. A 2.5 cm piece of the tip of 1 leaf is cut off and placed in a 10 cm petri dish with a moist filter paper in the bottom. (In practice, this is usually cut off the tip of a plant from the Mexican bean beetle tests using a bean leaf dipped in the needed solution). From 3 to 10 second-instar nymphs are tapped from the culture plants into the test dish and rapidly covered. Mortality counts are made after two days at 26.7° C.
(§1) The rating system employed in these tests is as follows:
(§2) Compounds rated active (8 or 9) are further tested at reduced concentrations in 50% acetone: 50% water.

[2] = tested on: Malaria Mosquito (Anopheles quadrimaculatus) adult; assay: Malaria Mosquito Adult Test; settings: 1 day
Experimental: Malaria Mosquito (Anopheles quadrimaculatus Say) Adult Test
Ten ppm solutions are poured into wide-mouth 46.2 ml jars each containing a microscope slide. The slides are removed from the test solution with forceps and laid horizontally to dry on a wide-mouth 118.4 ml bottle. When dry, they are placed in the same 118.4 ml bottle and ten 4 to 5-day old mosquitoes of mixed sexes are added to each bottle. A piece of cotton gauze held on by an elastic band serves as a lid and a wad of cotton soaked in 10% honey solution serves as food. Mortality counts are made after 1 day at 26.7° C.
as §1, §2

Bean Aphid (Aphid fabae) = assay: Bean Aphid test; settings: 1 day
Experimental: Bean Aphid (Aphid fabae Scopoli).
Five cm fiber pots, each containing a nasturtium plant 5 cm high and infested with 100 to 500 aphids 2 days earlier are placed on a 4 rpm turntable and sprayed with a 100 ppm solution of 2 revolutions with a No. 154 DeVilbiss Atomizer at 1.4 kg/cm^2 air pressure. The spray tip is held about 15 cm from the plants and the spray directed so as to give complete coverage of the aphids and the plants. The sprayed plants are laid on their sides on white enamel trays. Mortality estimates are made after 1 day at 26.7° C.
as §1, §2

[3] = tested on: Tobacco Budworm [Heliothis virescens] third instar; assay: Tobacco Budworm third instar test; settings: 3 days
Experimental: Tobacco Budworm [Heliothis virescens (Fabricius)]. Third instar. Three cotton plants with just expanded cotyledons are dipped in a 1000 ppm solution, and placed in a hood to dry. When dry, each cotyledon is cut in half and 10 are each placed in a 29.6 ml plastic medicine cup containing a 1.25 cm dental wick saturated with water, and one third-instar budworm larva is added. The cup is capped and held for 3 days at 26.7° C., after which mortality counts are made. The rating system employed in these tests is as follows: Compounds rated active (8 or 9) are further tested at reduced concentrations in 50% acetone: 50% water.

[4] = tested on: Cabbage Looper [Trichoplusia ni]; assay: Cabbage Looper test; settings: 2 days
Experimental: Cabbage Looper. [Trichoplusia ni (Hubner)].
A primary leaf of a cotton plant is dipped in the test solution and agitated for 3 seconds. It is then set in a hood to dry. Following this, the leaf is placed in a 10 cm petri dish containing a moist filter paper at the bottom and 10 third-instar loopers. The dish is covered and held at 26.7° C. After 2 days, mortality counts and estimates of feeding damage are recorded. Those materials showing partial kill and/or inhibition of feeding are held for another day for further observations.
as §1, §2

[5] = tested on: Two-Spotted Spider Mite [Tetranychus urticae]; assay: Phosphate-Resistant Strain of Two-Spotted Spider Mite test
Experimental: Phosphate-Resistant Strain of Two-Spotted Spider Mite [Tetranychus urticae (Koch)].
Sieva lima bean plants, with primary leaves 7.6 to 10 cm long, are infested with about 100 adult mites per leaf 4 hours before use in this test, in order to allow egg-laying before treatment. The infested plants are dipped for 3 seconds with agitation into a 300 ppm solution, and the plants set in the hood to dry. After 2 days at 26.7° C., the adult mite mortality is estimated on one leaf under a 10X stereoscopic microscope. The other leaf is left on the plant an additional 5 days and then examined at 10X power to estimate the kill of eggs and of newly-hatched nymphs, giving a measure of ovicidal and residual action, respectively.
as §1, §2

[6] = tested on: Southern Armyworm [Spodoptera eridania]; assay: Southern Armyworm test; settings: 2 days
Experimental: Southern Armyworm [Spodoptera eridania (Cramer)].
A sieva lima bean plant with just the primary leaves expanded to 7.6 to 10 cm is dipped for 3 seconds with agitation in a 1000 ppm solution and set in a hood to dry. Following this, one leaf is placed in a 10 cm petri dish which has a moist filter paper in the bottom and 10 third-instar armyworm larvae about 1 cm long. The dish is covered and held at 26.7° C. After 2 days mortality counts and estimates of the amount of feeding are made. Compounds showing partial kill and/or inhibition of feeding are held for an extra day for further observations.
as §1, §2

[7] = tested on: Mexican Bean Beetle (Epilachna varivestis); assay: Mexican Bean Beetle test; settings: 300 ppm
Text: Mexican Bean Beetle (Epilachna varivestis Mulsant)
Sieva lima bean plants (2 per pot) with primary leaves 7.6 to 10 cm long, are dipped in a 300 ppm solution and set in a hood to dry. One leaf is removed from the plant and placed in a 10 cm petri dish containing a moist filter paper on the bottom and 10 last-instar larvae (13 days from hatching).
The day after treatment, another leaf is removed from the plant and fed to the larvae after removing the remains of the original leaf. Two days after treatment, the third leaf is fed to the larvae, this usually being the last needed. The fourth leaf is used on the third day after treatment if the larvae have not finished feeding. The test is now set aside and held until adults have emerged, usually about 9 days after treatment began. After emergence is complete, each dish is examined for dead larvae, pupae or adults; deformed pupae or adults; larval-pupal intermediates or pupal-adult intermediates; or any other interference with normal molting, transformation and emergence of pupae or adults.
as §1, §2

Boophilus microplus = assay: Control of Ixodidae: engorged adult female ticks, reduction in viable egg masses
Experimental: The compound to be tested is dissolved in a 35% acetone/65% water mixture in amounts sufficient to provide the concentrations indicated in Table I below. Ten ticks per treatment are used and they are immersed in the test solution for three to five minutes, then removed and held in incubators for two to three weeks at 28° C. Counts of ticks laying eggs are then made and recorded. Eggs which were laid are placed in containers and kept for one month to observe hatching and to determine chemosterilant effect.
Percent reduction in viable egg masses is believed to be indicative of one or more of the following mechanisms:
2. Suppression of fecundity.
3. Chemosterilant effect.

[8] = tested on: Boophilus microplus larvae; assay: Control of Boophilus microplus larvae; settings: Rhipicephalus microplus, 48 h, read-out: Percent Mortality of Boophilus microplus
Experimental: Twenty larvae are enclosed in a pipet sealed at one end with a gauze material, and a solution, containing the test compound at the concentrations given, is then drawn through the pipet with a vacuum hose simulating a spray system. The ticks are then held for 48 hours at room temperature, and percent mortality rates are then determined.

[9] = tested on: Malaria Mosquito (Anopheles quadrimaculatus); assay: Malaria Mosquito egg and larvae test
Experimental: Malaria Mosquito (Anopheles quadrimaculatus say) egg and larvae test. One ml of a 300 ppm solution is pipetted into a 400 ml beaker containing 250 ml of deionized water and stirred with the pipette, giving a concentration of 1.2 ppm. A wax paper ring 0.6 cm wide to fit inside the beaker is floated on the surface of the test solution to keep the eggs from floating up the meniscus curve and drying out on the side of the glass. A spoon made of screen is used to scoop up and transfer about 100 eggs (0-24 hours old) into the test beaker. After two days at 26.7°C. observations of hatching are made. This includes kill of eggs or inhibition of hatch, kill of newly hatched larvae, or delayed hatch. Additional observations are made after another day for the same effects. The rating system employed in these tests is as follows: Compounds rated active (8 or 9) are further tested at reduced concentrations in 50% acetone: 50% water.

[10] = tested on: Tobacco Budworm [Heliothis virescens] eggs; assay: Tobacco Budworm egg test; settings: 300 ppm, 3 days
Experimental: (§3) Tobacco Budworm [Heliothis virescens (Fabricus)].
(§4) A cotton plant with 2 true leaves expanded is dipped for 3 seconds with agitation in a 300 ppm solution. A 1.25 to 2 cm square of cheesecloth with about 50 to 100 budworm eggs 0-24 hours old is also dipped in the test solution and placed on one leaf to dry. The leaf with the treated budworm eggs is removed from the plant and placed in a 236.6 ml (8-Oz) Dixie cup with a wet 5 cm piece of dental wick and covered with a lid. The other leaf is placed in a similar cup with a wick and a piece of cheesecloth infested with 50-100 newly hatched larvae is added before covering the cup with a lid. After 3 days at 26.7° C., observations of egg hatch are made as well as kill of newly hatched larvae, any inhibition of feeding, or interference of any sort with normal development.
as §1, §2

[11] = tested on: Tobacco Budworm [Heliothis virescens] larvae; assay: Tobacco Budworm newly hatched larvae test; settings: 3 days
Experimental: as §3, §4, §1, §2

## CC1(C)C(C(=O)OC(C#N)c2cccc(Oc3ccccc3)c2)C12C=C(Cl)c1ccccc12 (centres unmarked) [drawing 13]
[1]; 10 ppm
  Insecticidal activity rating, Leaf Hopper: 9 (100% mortality)
[1]; 100 ppm
  Insecticidal activity rating, Leaf Hopper: 9 (100% mortality)
[2]; 1 ppm
  Insecticidal activity rating, Mosquito, Adult: 7 (71-85% mortality) and 6 (61-70% mortality) and 9 (100% mortality)
[2]; 10 ppm
  Insecticidal activity rating, Mosquito, Adult: 9 (100% mortality)
Bean Aphid (Aphid fabae); 1 ppm
  Insecticidal activity rating, Bean Aphids: 9 (100% mortality)
Bean Aphid (Aphid fabae); 10 ppm
  Insecticidal activity rating, Bean Aphids: 9 (100% mortality)
Bean Aphid (Aphid fabae); 100 ppm
  Insecticidal activity rating, Bean Aphids: 9 (100% mortality)
[3]; 100 ppm
  Insecticidal activity rating, Tobacco Budworm 3rd Instar: 0 (0-4% killed or affected)
[3]; 1000 ppm
  Insecticidal activity rating, Tobacco Budworm 3rd Instar: 5 (51-60% mortality)
[4]; 100 ppm
  Insecticidal activity rating, Cabbage Looper: 9 (100% mortality)
[4]; 1000 ppm
  Insecticidal activity rating, Cabbage Looper: 9 (100% mortality)

## CC1(C)C(C(=O)OCc2cccc(Oc3ccccc3)c2)C12C=C(Cl)c1ccccc12 (centres unmarked) [drawing 12]
[5]; 100 ppm
  Activity rating, Phosphate Resistant Mites: 0 (0-4% killed or affected)
[5]; 300 ppm
  Activity rating, Phosphate Resistant Mites: 8 (86-95% mortality)
[6]; 10 ppm
  Insecticidal activity rating, Southern Armyworms: 0 (0-4% killed or affected)
[6]; 100 ppm
  Insecticidal activity rating, Southern Armyworms: 9 (100% mortality)
[6]; 1000 ppm
  Insecticidal activity rating, Southern Armyworms: 9 (100% mortality)
[7]
  Insecticidal activity rating, Mexican Bean Beetles: 9 (100% mortality)

## CC1(C)C(C(=O)OC(C#N)c2cccc(Oc3ccccc3)c2)C12C=C(Cl)c1ccccc12 (centres unmarked) [drawing 5]
Boophilus microplus; 125 ppm
  Percent reduction in viable egg masses: 98%

## CC1(C)C(C(=O)OCc2cccc(Oc3ccccc3)c2)C12C=C(Cl)c1ccccc12 (centres unmarked) [drawing 8]
[8]; 100 ppm
  mortality at 100 ppm: 100%

## CC1(C)C(C(=O)OCc2cccc(Oc3ccccc3)c2)C12C=C(Cl)c1ccccc12 (centres unmarked) [drawing 14]
[1]; 10 ppm
  Insecticidal activity rating, Leaf Hopper: 9 (100% mortality)
[1]; 100 ppm
  Insecticidal activity rating, Leaf Hopper: 9 (100% mortality)
[2]; 10 ppm
  Insecticidal activity rating, Mosquito, Adult: 0 (0-4% killed or affected)
Bean Aphid (Aphid fabae); 1 ppm
  Insecticidal activity rating, Bean Aphids: 0 (0-4% killed or affected)
Bean Aphid (Aphid fabae); 10 ppm
  Insecticidal activity rating, Bean Aphids: 9 (100% mortality)
Bean Aphid (Aphid fabae); 100 ppm
  Insecticidal activity rating, Bean Aphids: 9 (100% mortality)
[3]; 100 ppm
  Insecticidal activity rating, Tobacco Budworm 3rd Instar: 5 (51-60% mortality)
[3]; 1000 ppm
  Insecticidal activity rating, Tobacco Budworm 3rd Instar: 9 (100% mortality)
[4]; 100 ppm
  Insecticidal activity rating, Cabbage Looper: 9 (100% mortality)
[4]; 1000 ppm
  Insecticidal activity rating, Cabbage Looper: 9 (100% mortality)

## CC1(C)C(C(=O)OCc2cccc(Oc3ccccc3)c2)C12C=C(Cl)c1ccccc12 (centres unmarked) [drawing 10]
[9]; 0.04 ppm
  Insecticidal activity rating, Mosquito Larvae: 9 (100% mortality)
[9]; 0.4 ppm
  Insecticidal activity rating, Mosquito Larvae: 9 (100% mortality)
[9]; 1.2 ppm
  Insecticidal activity rating, Mosquito Larvae: 9 (100% mortality)
[10]
  Insecticidal activity rating, Tobacco Budworm Eggs: 0 (0-4% killed or affected)
[11]; 10 ppm
  Insecticidal activity rating, Tobacco Budworm Larvae: 9 (100% mortality)
[11]; 100 ppm
  Insecticidal activity rating, Tobacco Budworm Larvae: 9 (100% mortality)
[11]; 300 ppm
  Insecticidal activity rating, Tobacco Budworm Larvae: 9 (100% mortality)

## CC1(C)C(C(=O)OC(C#N)c2cccc(Oc3ccccc3)c2)C12C=C(Cl)c1ccccc12 (centres unmarked) [drawing 9]
[9]; 0.04 ppm
  Insecticidal activity rating, Mosquito Larvae: 9 (100% mortality)
[9]; 0.4 ppm
  Insecticidal activity rating, Mosquito Larvae: 9 (100% mortality)
[9]; 1.2 ppm
  Insecticidal activity rating, Mosquito Larvae: 9 (100% mortality)
[10]
  Insecticidal activity rating, Tobacco Budworm Eggs: 0 (0-4% killed or affected)
[11]; 10 ppm
  Insecticidal activity rating, Tobacco Budworm Larvae: 9 (100% mortality)
[11]; 100 ppm
  Insecticidal activity rating, Tobacco Budworm Larvae: 9 (100% mortality)
[11]; 300 ppm
  Insecticidal activity rating, Tobacco Budworm Larvae: 9 (100% mortality)

## CC1(C)C(C(=O)OCc2cccc(Oc3ccccc3)c2)C12C=C(Cl)c1ccccc12 (centres unmarked) [drawing 6]
Boophilus microplus; 15 ppm
  Percent reduction in viable egg masses: 0%
Boophilus microplus; 31 ppm
  Percent reduction in viable egg masses: 72.7%
Boophilus microplus; 62 ppm
  Percent reduction in viable egg masses: 83.9%
Boophilus microplus; 125 ppm
  Percent reduction in viable egg masses: 91.9%

## CC1(C)C(C(=O)OC(C#N)c2cccc(Oc3ccccc3)c2)C12C=C(Cl)c1ccccc12 (centres unmarked) [drawing 7]
[8]; 0.012 ppm
  mortality at 0.012 ppm: 0%
[8]; 0.05 ppm
  mortality at 0.05 ppm: 0%
[8]; 0.78 ppm
  mortality at 0.78 ppm: 80 to 100%

Reference: patent US4358607A, “Chloro-substituted benzospiro cyclopropane carboxylic acid” (American Cyanamid Co., priority 1978, dated 1982)
